Experimental findings from a melting point compilation (Tetko et al.; mined from patent text by program, amines drawn as free bases though some values may be those of a salt) are described below.

As for `COc1ccc2c(c1)c(CC1=CC(=O)N=N1)c(C)n2C(=O)c1ccc(Cl)cc1`, the melting point is greater than 230 °C. Consider `CCCc1nn(C)c2c(=O)[nH]c(Cc3ccc(N(CC)C(C)=O)cc3)nc12`, for which the melting point fell in the range of 149 to 151 °C. As for `O=S(=O)(O)c1cc(NCc2c(F)c(F)c(C(F)(F)F)c(F)c2F)ccc1O`, the figure is greater than 300 °C; as for `CCCOCCOc1ccc(Oc2ccc3c(c2)C=C(C(=O)Nc2ccc(CN(C)C4CCOCC4)cc2)CCS3(=O)=O)cc1OCC`, 159 to 160 °C. As for `CCCCCCCC(=O)N(C)Cc1cccc(-c2ccc(CCC(=O)O)cc2)c1`, the figure is 91 °C; as for `Oc1ncnc2c(F)ccc(F)c12`, 257 to 258 °C. With `O=C(O)CCc1ccc(Oc2ccc3c(c2)S(=O)(=O)NC2CCCN32)cc1` (stereo not drawn) the figure was 178 to 183 °C; with `COC1C(N(C)S(C)(=O)=O)c2cc(OCc3ccccc3)ccc2OC1(C)C` (stereo not drawn), 119 to 121 °C. Consider `Cc1ccc(-c2c(CNC(=O)OC(C)(C)C)n(CC(C)C)c(=O)c3ccc(O)cc23)cc1`, for which the melting point was 233 to 234 °C. Compound `N#Cc1ccc(N(Cc2ccc(O)c(Cl)c2)n2cnnc2)cc1-c1ccoc1` came in with a melting point of 192 to 193 °C. As for `CS(=O)c1ccc2c(c1)C(=O)C1(CC1)O2` (stereo not drawn), the figure is 87 to 90 °C; as for `CS(=O)(=O)N(Cc1cccnc1)Cc1ccc(Cl)cc1Cl`, 78 to 80 °C; as for `O=C1CCCN1c1ccc2c(c1)OCO2`, 89 to 91 °C. As to `N#Cc1cc(F)c(-n2nc(C(F)(F)F)n(C(F)F)c2=O)cc1F`, the melting point is 68 °C. `COc1c2c(c(OC)c(OC)c1OC)CC(CCCCCCCCN1C(=O)c3ccccc3C1=O)C2` yielded a melting point of 64 to 65 °C. With `CN(C)c1ccc(-c2ccnc3c(C(=O)c4cccs4)cnn23)cc1NC(=O)c1ccccc1Cl` the figure was 220 to 222 °C. As for `OC1CCCc2nc3ccccc3c(NCCCOc3ccccc3)c21` (stereo not drawn), the figure is 138 to 140 °C. With `COc1ccc(C(CC(C)=O)N2C(=O)c3cccc(NC(C)=O)c3C2=O)cc1OC1CCCC1` (stereo not drawn) the figure was 145 to 147 °C.

Regarding `O=C1NC(=S)SC1=C(c1ccccc1)c1ccccc1`, the melting point was in the range of 192 to 194 °C.

As to `Nc1cc(Cl)nc(SC/C=C/C(=O)N2CCOCC2)n1`, the melting point is 154 to 157 °C. With `c1cncc(CNC2=Nc3ccccc3Nc3ccccc32)c1` the figure was 150 to 152 °C; with `COc1ccc(OC)c2c1c(C(=O)C(=O)NC1=CC(=O)OC1)cn2Cc1ccc(Cl)cc1`, 212 to 215 °C. In turn, `O=C(CCc1ccccc1)N[C@H]1CCCN2CCC[C@@H](C(=O)O)N2C1=O` registered a melting point of 198 to 202 °C. As for `CC(C)(C)OCCOc1cc(NC(=O)OC(C)(C)C)c([N+](=O)[O-])cc1I`, the figure is 113 to 116 °C. With `N=C(N)Nc1nc(CSCCNC2=NS(=O)N=C2O)cs1` (stereo not drawn) the figure was 148 to 151 °C; with `Cc1c(Cc2cccc(C(F)(F)F)c2)sc2c(-c3cccc(C(N)=O)c3)cccc12`, 190 to 191 °C. As for `COC(=O)c1c(Sc2ccc(OC)cc2)nc(-c2ccccc2)n1Cc1cc2c(cc1Cl)OCO2`, the figure is 161 °C; as for `O=C(Nc1c(Cl)cccc1Cl)C1CC1`, 166 to 169 °C.

`CCOC(=O)c1c(OC(=O)C=C(C)C)c(CC)c(C)[nH]c1=O` yielded a melting point of 166 °C.

As to `Cc1cc(=O)n(-c2ccc(C(F)(F)F)cc2)[nH]1`, the melting point amounted to 130 °C. `CC1OC(Cn2cncn2)(c2ccc(Cl)cc2Cl)C1(C)C` (stereo not drawn) showed a melting point of 118 to 125 °C. As for `O=C(Nc1cc(Cl)ccc1S(=O)(=O)c1ccccc1)N[C@@H](Cc1ccc(NC(=O)c2c(Cl)cncc2Cl)cc1)C(=O)O`, the figure is 204 °C; as for `COc1ccc(CCNCC(O)COc2cccc3nn(Cc4ccccc4)cc23)cc1OC` (stereo not drawn), 101 to 102 °C; as for `O=C(O)CC(CC(=O)O)NC(=O)OCC1c2ccccc2-c2ccccc21`, 189 to 190 °C. On to `O=C1CNN(Cc2ccc(Cl)cc2Cl)C(=O)N1`, for which the melting point is 167 °C. As for `Cc1cc2nc(Cl)c(Cl)nc2c([N+](=O)[O-])c1C`, the figure is 133 to 134 °C; as for `CC#CCOc1ccc(S(=O)(=O)NC(C(=O)O)c2ccc(OCCN3CCCC3)cc2)cc1` (stereo not drawn), 245 to 247 °C; as for `CN(C(=O)c1ccc2nonc2c1)C1CCS(=O)(=O)CC1`, 238 to 239 °C. Take `O=C(O)CS(=O)(=O)Nc1c(F)cc(F)cc1F`: the melting point is 126 to 127 °C. With `CC(=O)Oc1cc2c(c3ccccc13)N(C(C)=O)c1ccccc1S2` the figure was 141 to 142 °C.

In turn, `COc1cc(N)ccc1C=NNC(=N)NN=Cc1ccc(N)cc1OC` showed a melting point of 220 to 230 °C.

Consider `NS(=O)(=O)c1cc2c(cc1Cl)NC(CCCCCO)NS2(=O)=O` (stereo not drawn), for which the melting point stood at 190 °C.

The compound `CC(C)(CCP(=O)(O)O)c1ccc(O)cc1` displayed a melting point of 192 to 195 °C. The compound `COCOc1c(OC)cc(/C=C/C(=O)/C=C/c2cc(OC)c(OCOC)c(OC)c2)cc1OC` registered a melting point of 146 to 148 °C.

On to `Cc1cccnc1C(CO)COc1ccc(CC2SC(=N)NC2=O)cc1` (stereo not drawn), for which the melting point is 213 to 214 °C. With `CC(=O)c1ccc(NS(C)(=O)=O)c(Nc2ccc(F)cc2F)c1` the figure was 113 to 115 °C; with `CC(C)(C)COc1ccc(NC(=O)c2cnn(-c3ccc(F)cc3)c2)cc1C#N`, 196 to 197 °C; with `O=C1C(c2ccc(O)cc2)=C(Br)c2ccc(O)cc21`, 240 °C. Consider `CC(C)(O)c1nc(CO)n(Cc2ccc(-c3ccccc3-c3nnn[nH]3)cc2)c1C(=O)O`, for which the melting point lay in the range of 201 to 202 °C.

Regarding `Cn1ncc2c1-c1c(Oc3ncccn3)sc(C(=O)O)c1CC2`, the melting point lay within 256 to 258 °C.

In turn, `CC(=O)n1cc(-c2ccccc2)c(-n2cnnc2)n1` returned a melting point of 165 to 168 °C. As for `c1ccc(N(Cc2cccc3ccccc23)c2ccccc2)cc1`, the figure is 170 to 172 °C; as for `Cc1cc(N)c(Cl)c(C)n1`, 86 °C; as for `COC(=O)C1CCC(OC2=C3N=c4ccccc4=C3C(Cc3ccc(F)cc3)C=C2)O1` (stereo not drawn), 85 to 86 °C. With `CCc1nnc(-c2ccc(OC)cc2)n1-c1ccc(Cl)cc1` the figure was 162 °C; with `C=CCN1CCc2c([nH]c3ccccc23)C(C(=O)OC)C1` (stereo not drawn), 105 to 108 °C. With `CC1=C(C(=O)OCCN2CCCCC2)C(c2ccccc2C(F)(F)F)c2c(ccnc2OC(C)C)N1` (stereo not drawn) the figure was 118 to 120 °C. The compound `O=c1c2ccc([N+](=O)[O-])cc2nc2n1CCC2=Cc1ccccc1` registered a melting point of 196 to 197 °C. `COCOc1ccc(Cl)cc1-c1cc(-c2cccc([N+](=O)[O-])c2)c(C#N)c(NC(=O)c2ccccc2)n1` showed a melting point of 205 to 206 °C.

As to `CS(=O)(=O)Nc1c(Br)cnn1-c1ccc(C(F)(F)F)cc1Cl`, the melting point is 63 to 65 °C. With `CCCCn1c(=O)c(C#N)c(N2CCN(C(=O)c3cccs3)CC2)c2cccnc21` the figure was 143 °C; with `CC(C)N(C)c1cccc([N+](=O)[O-])c1C#N`, 70 to 72 °C. With `Cc1ccccc1C1CC(=O)c2c(C)n[nH]c2C1` (stereo not drawn), the melting point lay in the range of 205 to 207 °C.
